Assay [1] concerns C. elegans. Conditions: 1 mM trigonelline chloride, day 8 old worms, vs control. How it is done:
Absolute quantification of the mtDNA copy number in wild type N2 worms was performed by real-time PCR. Relative values for nduo-1, and act-1 were compared within each sample to generate a ratio representing the relative level of mitochondrial DNA per nuclear genome. The average of at least two technical repeats was used for each biological data point. Each experiment was performed on at least ten independent biological samples (individual worms). Trigonelline treatment with 1 mM trigonelline chloride and experimental measurements were started at Day 1 of wild type N2 worm adulthood, in a regimen of chronic exposure till experiments termination.

Assay [2] concerns RW1596 (myo-3p::GFP) worms. To be noted: 1 mM trigonelline chloride, 11 day old worms vs age matched control. How it is done:
RW1596 (myo-3p::GFP) worms were collected at Day 1 (young adults) and at Day 11 (aged animals) for muscle integrity assessment. Worms were immobilized with tetramisole and analyzed by confocal microscopy, to assess the muscle fibers morphology shown by GFP fluorescence imaging. Trigonelline treatment with 1 mM trigonelline chloride and experimental measurements were started at Day 1 of wild type N2 worm adulthood, in a regimen of chronic exposure till experiments termination.

Assay [3] concerns Human Skeletal Muscle Myotubes (HSMM). To be noted: 6 h, 500 μm. How it is done: Human primary myoblasts from two different donors were seeded in 6 well plates at a density of 200,000 cells per well in skeletal muscle growth medium (SKM-M, AMSbio). After one day, the differentiation was induced by a medium change for 4 days using differentiation culture medium (Gibco No. 31330-028). Cells were treated with isotopically labelled trigonelline (^13C carbonyl; 3^2H on methyl) for 6 h.
Cell extracts were separated on a Vanquish UHPLC+focused LC system (Thermo Scientific) with a hydrophilic liquid chromatography (HILIC) iHILIC-Fusion(P) column (Hilicon) carrying the dimensions 150×2.1 mm, 5 μm and a guard column (iHILIC-fusion(P), Hilicon) in front. The separation of metabolites was achieved by applying a linear solvent gradient in normal phase at 0.25 mL/min flow rate and 35° C. of temperature. As mobile phase, solvent A was water with 10 mM ammonium acetate and 0.04% (v/v) ammonium hydroxide, pH ˜9.3, and solvent B was acetonitrile.
The eluting metabolites were analyzed with an Orbitrap Fusion Lumos mass spectrometer (Thermo Scientific) with a heated electrospray ionization (H-ESI) source in positive and negative mode at a resolution of 60,000 at m/z of 200. Instrument control and data analysis were conducted using Xcalibur (Thermo Scientific).

For assay [4] the test system is unchanged. Put plainly: Colorimetric NAD+ quantification in differentiated human primary myoblasts. It is filed as cell-based. To be noted: 16 h, different doses. How it is done: After one day, the differentiation is induced by a medium change for 4 days. Cells were treated with synthetic trigonelline monohydrate (FIG. 4A) or with Fenugreek seed extract enriched in trigonelline containing 40.45% trigonelline (FIG. 4B) for 16 h at difference doses. NAD^+ was measured using colorimetric NAD^+ quantification assay (Biovision NAD^+/NADH Quantitation Colorimetric Kit #k337-100).

The subject of a further assay is C57BL/6JRj male mice. Put plainly: Liver NAD+ in mice after oral gavage. Conditions: equimolar of 300 mg/kg trigonelline, 120 minutes. It is filed as in vivo. How it is done: FIG. 5—Liver NAD^+ levels of C57BL/6JRj mice measured 120 minutes after administration of 300 mg/kg trigonelline chloride or an equimolar amount of fenugreek seed extract by oral gavage
10 weeks C57BL/6JRj male mice received trigonelline (sigma #T5509) or fenugreek seed extract enriched in trigonelline (40.45% trigonelline) by oral gavage (equimolar of 300 mg/kg trigonelline, n=8/group). After 120 minutes treatment, the liver was harvested and flash frozen in liquid nitrogen. NAD^+ was measured in liver using an enzymatic method adapted from Dall, M., et al., Mol Cell Endocrinol, 2018. 473: p. 245-256.

The subject of assay [5] is C. elegans. Conditions: 1 mM, day 8 and day 11 old worms, vs control. An excerpt: 45 to 60 worms per condition were manually scored for mobility after poking. Worms that were unable to respond to any repeated stimulation were scored as dead. […] Trigonelline treatment and experimental measurements were started at Day 1 of wild type N2 worm adulthood, in a regimen of chronic exposure till experiments termination.

Assay [6] has as its system C. elegans. To be noted: 1 mM, vs control. The procedure:
C. elegans mobility test was performed using the Movement Tracker software (Mouchiroud, L. et al. Curr Protoc Neurosci 77, 8.37.1-8.37.21 (2016)). The experiments were repeated at least twice. Trigonelline treatment and experimental measurements were started at Day 1 of wild type N2 worm adulthood, in a regimen of chronic exposure till experiments termination.

Assay [7] relates to C. elegans. Conditions: 1 mM, chronic exposure from Day 1 adulthood. How it is done: Worm lifespan tests were performed using about 100 animals per condition and scored manually every other day. Trigonelline treatment and experimental measurements were started at Day 1 of wild type N2 worm adulthood, in a regimen of chronic exposure till experiments termination.

As to `C[n+]1cccc(C(=O)[O-])c1` [trigonelline, 1-methylpyridin-1-ium-3-carboxylate], the “ratio of mitochondrial-encoded gene (nduo-1) to nuclear-encoded gene (act-1)” value with C. elegans [1] is “higher than in the control group”. In addition, the “myofibrillar structure (GFP-tagged myosin)” value in assay [2] is reported as “improved more organized myofibrillar structure”. Besides, the “NAD+ relative concentration relative to control (LC-MS)” value in assay [3] (HSMM from 2 donors) was “enhancement of NAD+”.
Regarding `C[n+]1cccc(C(=O)[O-])c1` [chemically synthesized trigonelline, trigonelline monohydrate], the “NAD+ content compared to the control” value in assay [4] is “significant increase in NAD^+ content”. Moreover, the “NAD+ content in the liver compared to the control” value in the assay with C57BL/6JRj male mice is given as “significant increase in NAD^+ content in the liver”.
On to `[2H]C([2H])([2H])[n+]1cccc([13C](=O)[O-])c1` [labelled trigonelline], for which the “relative abundance of labelled NAD+ (M+1)” value in assay [3] (HSMM, vs naturally occurring NAD+ control) is “increase in relative abundance of labelled NAD+ (M+1)”.
Take `C[n+]1cccc(C(=O)O)c1.[Cl-]` [trigonelline chloride]: the “stimulated mobility score (worms responsive to a physical stimulus)” value in the assay with C. elegans [5] was “more responsive to a physical stimulus than the control”. Besides, the “distance travelled during spontaneous mobility assay” value in the assay with C. elegans [6] (advanced aging phase) is listed as “significantly increased”. For the same compound, the “mean speed during spontaneous mobility assay” value with C. elegans [6] (from day 1 adulthood) is recorded as “increased the mean speed compared to the control”. In the assay with C. elegans [7], the increase of lifespan was found to be 21%.

The values are drawn from US20220241266A1, “COMPOSITIONS AND METHODS USING TRIGONELLINE AND HIGH PROTEIN FOR PREVENTING OR TREATING CONDITIONS OR DISORDERS IN SKELETAL MUSCLE” (SOCIETE DES PRODUITS NESTLE S.A., priority 2019, published 2022).
